# Data reported in patent publication US10617119B1, “Piscicide composition” (priority 2018, dated 2020).
# Test system: Koi
# Assay: Feeding of toxic pellets to Koi in aquatic tanks (consumption, mortality)
# Type: in vivo
# Details: juvenile Koi
structure (smiles),measurement,value
[O]=[Ca] [calcium oxide],mortality / toxicity,did not kill Koi
CC(=O)Nc1ccc(O)cc1 [acetaminophen],mortality / toxicity,None of the Koi died
